Values joined by “and” are separate entries in the source; they are usually repeats but may differ in a detail not shown here. Equal entries are not always repeated.
Experiments:
[1] = Reconstruction experiments: anthocyanins added to petal juice of Medeo roses; assay type: physicochemical, Rosa hybrida; conditions: pH 4.9
Protocol: The rose cultivar Medeo generally produces cream-colored to pale apricot flowers (RHSCC 158C to 159A). […] The estimated vacuolar pH of Medeo petals is around 4.6. The petal juice of Medeo roses was extracted by grinding one petal with 50 μL of water using a mortar and pestle. The petal juice was collected and mixed with 10-20 μL of 1-2 mg/g delphinidin 3-glucoside, delphinidin 3,5-diglucoside and malvidin 3,5-diglucoside. The colors observed were described according to the Royal Horticultural Society Color Charts (RHSCC) (The Royal Horticultural Society, London) (Table 8).

[2] = system: Petunia FMT (E20); test: Methyltransferase assay (14C-SAM, TLC) of crude homogenate of E. coli containing pCGP3086; assay type: biochemical, Petunia hybrida; design: key to Petunidin (product on TLC) / Malvidin (product on TLC): yes = detection of product on TLC; no = no reaction observed as determined by absence of product; conditions: for Petunidin and malvidin, the methylated derivatives of delphinidin, in assay reactions: crude homogenates from pCGP3086 cells, 14C-SAM
Protocol: 10 mLs of LB containing ampicillin at 100 μg/mL and kanamycin at 25 μg/mL. (LB/Amp100+Kan25) were inoculated with a single colony of pCGP3086 or pQE30 in M15 (pREP4) cells. […] IPTG was then added to a final concentration of 1 mM and the culture was further incubated at 30° C. with shaking for 8 hours. The cells were pelleted by centrifugation at 3500 rpm for 10 minutes at 4° C. The pellet was resuspended in 1 mL of 0.1 M NaPi, pH 7.5, 4 mM MgCl2. […] The mixture was then sonicated for two bursts of 10 seconds at output 2-3 and then incubated on ice for 30 minutes. The cell debris was pelleted by centrifugation at 14,000 rpm for 20 minutes at 4° C. The supernatant was passed through a NAP-10 column (Pharmacia) and 1.5 mL of the sample collected in 0.1 M NaPi, pH 7.5, 4 mM MgCl2. […] (1983), supra. Methyltransferase assays were set up according to Table 10 in a total reaction volume of 50 μL. […] The assay reactions were incubated at 30° C. for 30 minutes. Fifty microlitres of a chloroform mix (CHCl3:methanol/1% HCl, 2:1) was added and the mixture was then vortexed to stop the reactions. […] The tube was then placed in a boiling waterbath for 30 minutes and the contents subsequently desiccated under vacuum.

[3] = system: Torenia FMT (TFMT); test: Methyltransferase assay (14C-SAM, TLC) of crude homogenate of E. coli containing pCGP3090; assay type: biochemical, Torenia hybrida; design: key to Petunidin (product on TLC) / Malvidin (product on TLC): yes = detection of product on TLC; no = no reaction observed as determined by absence of product
Protocol: (§1) The assay reactions were incubated at 30° C. for 30 minutes. Fifty microlitres of a chloroform mix (CHCl3:methanol/1% HCl, 2:1) was added and the mixture was then vortexed to stop the reactions. The phases were separated by centrifugation at 13,000 rpm for 5 minutes and 50 μL of the upper phase was transferred into a clean tube and the contents subsequently hydrolysed by the addition of 12.5 μL of 10M HCl. The tube was then placed in a boiling waterbath for 30 minutes and the contents subsequently desiccated under vacuum. The residue was resuspended in 2-3 μL of methanol/1% HCl and spotted onto a TLC plate alongside standard samples of petunidin, malvidin and delphinidin. The anthocyanidins were separated in a Forestal system (HOAc:water:HCl; 30:10:3) (Markham, Techniques of flavonoid identification, Academic Press, London, 1982) and the TLC was exposed to an autoradiographic film (Kodak) for 16 hours at −70° C.
The confirmation of recombinant protein expression and preparation of crude protein extracts and subsequent determination of methyltransferase activity were as described for the analysis of the Petunia E20 cDNA clone (PFMT) (described above in Example 7).
The enzyme activities of the protein encoded by the Torenia FMT cDNA clone in pCGP3090 along with that of the Petunia FMT (E20) clone in pCGP3086 were assessed using the substrates delphinidin 3-glucoside and delphinidin 3-rutinoside under assay conditions as described in Jonsson et al. (1983), supra and in Example 7 of this specification.
Methyltransferase assays were set up according to Table 15 in a total reaction volume of 50 μL.
Reaction conditions were as described previously (Example 7).

[4] = system: Petunia FMT (E20); test: HPLC assay of methyltransferase activity, E. coli extract containing pCGP3086; assay type: biochemical, Petunia hybrida; conditions: for product of flavonoid methyltransferase activity with the substrate: Petunia FMT (E20) in pCGP3086, to a lesser degree malvidin; for Predominant FMT Activity / Anthocyanidins (mg/g) Cya / Anthocyanidins (mg/g) Del / Anthocyanidins (mg/g) Mal / Anthocyanidins (mg/g) Peo / Anthocyanidins (mg/g) Pet: pCGP3086; for % of anthocyanidin detected cya / % of anthocyanidin detected del / % of anthocyanidin detected mal / % of anthocyanidin detected peo / % of anthocyanidin detected pet: pCGP3086 (PFMT), percentage of total anthocyanidins; for % of anthocyanidin detected cya / % of anthocyanidin detected del / % of anthocyanidin detected mal / % of anthocyanidin detected peo / % of anthocyanidin detected pet / Anthocyanidins (mg/g) Cya / Anthocyanidins (mg/g) Del / Anthocyanidins (mg/g) Mal / Anthocyanidins (mg/g) Peo / Anthocyanidins (mg/g) Pet: duplicate a/b; for Anthocyanidins (mg/g) Cya / Anthocyanidins (mg/g) Del / Anthocyanidins (mg/g) Mal / Anthocyanidins (mg/g) Peo / Anthocyanidins (mg/g) Pet: substrate 2 mg/mL, SAM 2 mg/mL
Protocol: as §1
(§2) Anthocyanidins in the reaction mixture were analysed by HPLC via gradient elution using gradient conditions of 50% B to 60% B over 10 minutes, then 60% B for 10 minutes and finally 60% B to 100% B over 5 minutes where solvent A consisted of TFA:H2O (5:995) and solvent B consisted of acetonitrile:TFA:H2O (500:5:495). An Asahi Pac ODP-50 cartridge column (250 mm×4.6 mm ID) was used for the reversed phase chromatographic separations. […].
(§3) The enzyme activities of the peptides encoded by Petunia and Torenia FMT cDNA clones in pCGP3086 and pCGP3090, respectively were further assessed using the substrates delphinidin 3-glucoside and delphinidin 3-rutinoside and delphinidin 3,5-diglucoside under assay conditions as previously described (Table 15, Example 9) except that the ^14C-labelled SAM was replaced with non radioactive SAM at 2 mg/mL and the substrates (delphinidin 3-glucoside and delphinidin 3-rutinoside and delphinidin 3,5-diglucoside) at 2 mg/mL.

[5] = system: Torenia FMT (TFMT); test: HPLC assay of methyltransferase activity, E. coli extract containing pCGP3090; assay type: biochemical, Torenia hybrida; conditions: for product of flavonoid methyltransferase activity with the substrate: Torenia FMT in pCGP3090, to a lesser degree petunidin; for Predominant FMT Activity / Anthocyanidins (mg/g) Cya / Anthocyanidins (mg/g) Del / Anthocyanidins (mg/g) Mal / Anthocyanidins (mg/g) Peo / Anthocyanidins (mg/g) Pet: pCGP3090; for % of anthocyanidin detected cya / % of anthocyanidin detected del / % of anthocyanidin detected mal / % of anthocyanidin detected peo / % of anthocyanidin detected pet: pCGP3090 (TFMT), percentage of total anthocyanidins; for % of anthocyanidin detected cya / % of anthocyanidin detected del / % of anthocyanidin detected mal / % of anthocyanidin detected peo / % of anthocyanidin detected pet / Anthocyanidins (mg/g) Cya / Anthocyanidins (mg/g) Del / Anthocyanidins (mg/g) Mal / Anthocyanidins (mg/g) Peo / Anthocyanidins (mg/g) Pet: duplicate a/b; for Anthocyanidins (mg/g) Cya / Anthocyanidins (mg/g) Del / Anthocyanidins (mg/g) Mal / Anthocyanidins (mg/g) Peo / Anthocyanidins (mg/g) Pet: substrate 2 mg/mL, SAM 2 mg/mL
Protocol: as §1, §2, §3

[6] = pCGP3086 crude homogenate + 14C-SAM (Table 16, positive control)
[7] = pCGP3086 crude homogenate + 14C-SAM, 30° C., 30 minutes (Table 11)
[8] = pCGP3090 crude homogenate + 14C-SAM (Table 16)

With `OC[C@H]1O[C@@H](Oc2cc3c(O)cc(O)cc3[o+]c2-c2cc(O)c(O)c(O)c2)[C@H](O)[C@@H](O)[C@@H]1O` [D3G, delphinidin 3-glucoside] the COLOR [1] was “red-purple”, the “RHSCC#” value [1] was 74A and the “Petunidin and malvidin, the methylated derivatives of delphinidin, in assay reactions” value (“Petunidin and malvidin” for short) [2] was “detected”. For the same compound, the “Malvidin (product on TLC)” value [2, 6] was “yes”, the “Petunidin (product on TLC)” value [2, 6] was “yes” and the “Malvidin (product on TLC)” value [2, 7] was “yes”. The “Petunidin (product on TLC)” value [2, 7] was “yes”, the “Petunidin and malvidin” value ([3]; crude homogenates from pCGP3090 (containing TFMT), 14C-SAM) was “detected” and the “Malvidin (product on TLC)” value [3, 8] was “yes”. For the same compound, the “Petunidin (product on TLC)” value [3, 8] was “yes”, the “product of flavonoid methyltransferase activity with the substrate” value (“product … with the substrate” for short) [4] was “predominantly petunidin” and the “Predominant FMT Activity” value [4] was 3′FMT. The “% of anthocyanidin detected cya” value [4] was 11.8% and 9.7%, the “% of anthocyanidin detected del” value [4] was 35.5% and 31.4% and the “% of anthocyanidin detected mal” value [4] was 6.0% and 6.5%. The “% of anthocyanidin detected peo” value [4] was 2.7% and 3.0%, the “% of anthocyanidin detected pet” value [4] was 44.0% and 49.4% and the “Anthocyanidins (mg/g) Cya” value [4] was 2.4 mg/g and 2.0 mg/g. The “Anthocyanidins (mg/g) Del” value [4] was 7.1 mg/g and 6.4 mg/g, the “Anthocyanidins (mg/g) Mal” value [4] was 1.2 mg/g and 1.3 mg/g and the “Anthocyanidins (mg/g) Peo” value [4] was 0.5 mg/g and 0.6 mg/g. For the same compound, the “Anthocyanidins (mg/g) Pet” value [4] was 8.8 mg/g and 10.0 mg/g, the “product … with the substrate” value [5] was “predominantly malvidin” and the “Predominant FMT Activity” value [5] was 3′5′FMT. The “% of anthocyanidin detected cya” value [5] was 4.5% and 3.6%, the “% of anthocyanidin detected del” value [5] was 7.8% and the “% of anthocyanidin detected mal” value [5] was 74.0% and 75.2%. The “% of anthocyanidin detected peo” value [5] was 8.5% and 8.0%, the “% of anthocyanidin detected pet” value [5] was 5.1% and 5.4% and the “Anthocyanidins (mg/g) Cya” value [5] was 1.0 mg/g and 0.9 mg/g. The “Anthocyanidins (mg/g) Del” value [5] was 1.8 mg/g and 1.9 mg/g, the “Anthocyanidins (mg/g) Mal” value [5] was 17.1 mg/g and 18.1 mg/g and the “Anthocyanidins (mg/g) Peo” value [5] was 2.0 mg/g and 1.9 mg/g. The “Anthocyanidins (mg/g) Pet” value [5] was 1.2 mg/g and 1.3 mg/g.

With `C[C@@H]1O[C@@H](OC[C@H]2O[C@@H](Oc3cc4c(O)cc(O)cc4[o+]c3-c3cc(O)c(O)c(O)c3)[C@H](O)[C@@H](O)[C@@H]2O)[C@H](O)[C@H](O)[C@H]1O` [D3R, delphinidin 3-rutinoside] the “Petunidin and malvidin” value [2] was “detected”, the “Malvidin (product on TLC)” value [2, 6] was “yes” and the “Petunidin (product on TLC)” value [2, 6] was “yes”. The “Malvidin (product on TLC)” value [2, 7] was “yes”, the “Petunidin (product on TLC)” value [2, 7] was “yes” and the “product … with the substrate” value [4] was “predominantly petunidin”. For the same compound, the “Predominant FMT Activity” value [4] was 3′FMT, the “% of anthocyanidin detected cya” value [4] was 2.5% and the “% of anthocyanidin detected del” value [4] was 21.2% and 21.7%. The “% of anthocyanidin detected mal” value [4] was 16.6% and 17.4%, the “% of anthocyanidin detected peo” value [4] was 1.2% and 1.1% and the “% of anthocyanidin detected pet” value [4] was 58.5% and 57.4%. For the same compound, the “Anthocyanidins (mg/g) Cya” value [4] was 0.4 mg/g and 0.5 mg/g, the “Anthocyanidins (mg/g) Del” value [4] was 3.7 mg/g and 4.5 mg/g and the “Anthocyanidins (mg/g) Mal” value [4] was 2.9 mg/g and 3.6 mg/g. For the same compound, the “Anthocyanidins (mg/g) Peo” value [4] was 0.2 mg/g, the “Anthocyanidins (mg/g) Pet” value [4] was 10.2 mg/g and 11.9 mg/g and the “product … with the substrate” value [5] was “predominantly malvidin”. For the same compound, the “Predominant FMT Activity” value [5] was 3′5′FMT, the “% of anthocyanidin detected cya” value [5] was 0.0% and the “% of anthocyanidin detected del” value [5] was 13.2% and 14.6%. For the same compound, the “% of anthocyanidin detected mal” value [5] was 80.9% and 79.1%, the “% of anthocyanidin detected peo” value [5] was 1.9% and the “% of anthocyanidin detected pet” value [5] was 4.0% and 4.3%. For the same compound, the “Anthocyanidins (mg/g) Cya” value [5] was 0 mg/g, the “Anthocyanidins (mg/g) Del” value [5] was 2.5 mg/g and 2.8 mg/g and the “Anthocyanidins (mg/g) Mal” value [5] was 15.6 mg/g and 15.1 mg/g. For the same compound, the “Anthocyanidins (mg/g) Peo” value [5] was 0.4 mg/g and the “Anthocyanidins (mg/g) Pet” value [5] was 0.8 mg/g.
